Results taken from patent US7476729B2, “Dbait and uses thereof” (Institut Curie, priority 2003, dated 2009).

Tests used:
[1] = system: radiation-enhanced illegitimate integration of a plasmid in Hela cells; assay: Inhibition of radiation-enhanced illegitimate integration of exogenous DNA; format: cell-based, human; conditions: 2 μg Dbait, fractionated 4×0.5 Gy irradiation
Protocol: (§1) Exponentially growing cells in six-well plates were harvested and incubated with […] of complete DMEM containing a mixture of Dbait molecules and Superfect reagent (Qiagen, Courtaboeuf, France) in a ratio of 10 μl Superfect per μg DNA. After 5 h at 37° C. under standard conditions, the cells were washed with PBS and complete DMEM was added. Where indicated, cells were exposed to irradiation either in one session (10 Gy) 5 h after the beginning of transfection or in four sessions of 0.5 Gy administered with a ^137Cs unit (1 Gy/min) 3, 4, 5 and 6 h after the beginning of transfection and allowed to grow for two weeks. When plasmid integration was measured, 2 μg of plasmid was added to Dbait transfection and puromycin (1.7 μg/ml) was added to the growth medium 48 h after transfection. Plasmid transfection efficiency was estimated by analyzing 10,000 cells for GFP expression on a FACScan flow cytometer (FACSalibur, Beckton-Dickinson, USA).
Ionizing radiation is known to improve illegitimate integration of exogenous DNA, a process termed radiation-enhanced integration. Hela cell culture was used for this assay. Cells were transfected during 8 hours by 2 μg of a linear plasmid carrying the gene coding for neomycin resistance, and three different ratio of DNA/superfect (1:2, 1:5, 1:10). During transfection time, the cells were exposed to different irradiation protocols: no irradiation, one single irradiation of 1 Gy and 2 Gy, as well as a 2 Gy irradiation delivered by fractionated doses of 0.5 Gy every 2 hours (4×0.5 Gy). The integration of the plasmid was monitored by selection of Neo^R cells growing in a medium containing 0.6 mg/ml of G418. […] When 2 μg of Dbait32H (SEQ ID NO: 1) molecules were added to the transfection mix, the radiation-enhanced integration was abolished (FIG. 2.3).
Wortmann (Wort) and NU7026 (NU) which are known inhibitors of PI3K (including DNA-PK) were used as control.

[2] = system: DNA end-joining reaction in the nuclear extracts of Hep2 cells; assay: DNA end-joining assay in Hep2 nuclear extract; format: biochemical, human; conditions: 2 h incubation with various Dbait
Protocol: DNA end-joining was monitored by incubating ^32P-labeled 605-bp linear DNA fragments with Hep2 nuclear extract in the presence of various Dbait molecules. Ligation products migrate as dimers, trimers or tetramers, starting 605 bp monomer.
Approximately 16% of the ^32P-labeled blunt linear duplex DNA molecules were ligated into dimers and trimers during the first 2 h of incubation. The amount of high molecular weight ligation products increased up to 30% of the total input DNA after 16 h. […] In most experiments, Dbait32H (SEQ ID NO: 1) was added simultaneously with the labeled DNA fragments to the nuclear extract.
Various Dbait molecules were tested for their effect on the cell-free assay by adding the molecules to nuclear extract and incubating for 2 h with the DNA fragments.
(§2) DNA-PK activity was monitored using the kit SignaTECT DNA-dependent Protein Kinase Assay System (Promega, Madison, USA). Increasing amounts of Hep2 nuclear extract (cleaned of endogenous DNA by DEAE-Sepharose filtration) were assayed in the presence of 250 nM Dbait. Extract, biotinylated peptide substrate and various amount of nuclear extract were incubated 5 minutes at 30° C. with (γ-^32P)ATP according to manufacturer indications. The biotinylated substrate was capture on streptavidine membrane, washed and counted in a scintillation counter. Percentage of phosphorylation is calculated by dividing the bound radioactivity by the total count of (γ-^32P)ATP per sample. Reactions (10 μl) were carried out in 60 mM KOAc, 100 μg/ml BSA, 0.5 mM Mg(Cl)2, 1 μl T4 DNA ligase 10× buffer (Promega, Madison, USA). Nuclear extract and Dbait were incubated 2 minutes before addition of ^32P-labeled DNA (10 ng). Samples were incubated various time at 37° C. before ligation being stopped by 20 mM EDTA and 1 mg/ml Proteinase K addition. Ligation products were analyzed by electrophoresis through 0.7% agarose gels followed by autoradiography and quantification by phosphorimaging.

Hela cells = assay: Clonogenic survival assay of Hela cells after 4×0.5 Gy irradiation; format: cell-based, human; conditions: 4×0.5 Gy spaced 2 hours, Dbait transfected with Superfect (83 nM or 2 μg)
Protocol: as §1
Upon 8 hours transfection of Dbait molecules in Hela cells and four irradiation with 0.5 Gy fractionated irradiation spaced 2 hours (4×0.5 Gy), performed with γ-rays from a ^137Cs source, a significant reduction of clonogenic survival was observed as compared to untransfected cells. The results are given on FIG. 2.1 wherein Panel A gives the dose-dependence of normalized survival clone number in the presence of Dbait32 (SEQ ID NO: 1) and Dbait32H (SEQ ID NO: 1), and Panel B, the normalized survival clone number in the presence of different Dbait molecules at 83 nM (concentration in culture medium). Cell culture was in MEM supplemented with 10% serum. Superfect (Qiagene) was used as transfection agent according to the manufacturer's instruction.
Clonogenic survival was estimated as the number of treated cells forming colonies on the number of untreated cells.

Ku complex = target: T1, Ku complex (Homo sapiens, UniProt P12956+P13010); assay: Band-shift assay with Hep2 nuclear protein extracts; format: binding; conditions: for retarded bands in band-shift assay: 10 nM 32P radio-labelled Dbait, 0-320 ng/μL Hep2 nuclear proteins, 30° C., 10 minutes
T1 construct: in the presence of nuclear protein extracts from Hep2 cells according to standard protocol; endogenous in cells; host or cells: Hep2 cells (nuclear protein extract)
T1 sequence (P12956 whole entry): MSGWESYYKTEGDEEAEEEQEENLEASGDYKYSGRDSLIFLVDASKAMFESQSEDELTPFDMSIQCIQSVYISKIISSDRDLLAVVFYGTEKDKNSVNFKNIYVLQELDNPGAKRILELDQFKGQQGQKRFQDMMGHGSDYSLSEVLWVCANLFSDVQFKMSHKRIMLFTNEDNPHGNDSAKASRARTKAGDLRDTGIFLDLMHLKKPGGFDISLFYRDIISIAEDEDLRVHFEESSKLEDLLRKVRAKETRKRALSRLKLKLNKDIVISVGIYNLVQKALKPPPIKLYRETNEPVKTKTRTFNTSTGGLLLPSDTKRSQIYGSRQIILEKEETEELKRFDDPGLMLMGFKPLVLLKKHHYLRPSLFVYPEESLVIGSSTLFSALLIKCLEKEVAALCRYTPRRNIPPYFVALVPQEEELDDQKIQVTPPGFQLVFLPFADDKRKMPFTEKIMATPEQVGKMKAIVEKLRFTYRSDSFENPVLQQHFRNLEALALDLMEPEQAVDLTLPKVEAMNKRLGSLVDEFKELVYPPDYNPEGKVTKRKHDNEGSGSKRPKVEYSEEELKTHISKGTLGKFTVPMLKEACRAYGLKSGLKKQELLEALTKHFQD
T1 sequence (P13010 whole entry): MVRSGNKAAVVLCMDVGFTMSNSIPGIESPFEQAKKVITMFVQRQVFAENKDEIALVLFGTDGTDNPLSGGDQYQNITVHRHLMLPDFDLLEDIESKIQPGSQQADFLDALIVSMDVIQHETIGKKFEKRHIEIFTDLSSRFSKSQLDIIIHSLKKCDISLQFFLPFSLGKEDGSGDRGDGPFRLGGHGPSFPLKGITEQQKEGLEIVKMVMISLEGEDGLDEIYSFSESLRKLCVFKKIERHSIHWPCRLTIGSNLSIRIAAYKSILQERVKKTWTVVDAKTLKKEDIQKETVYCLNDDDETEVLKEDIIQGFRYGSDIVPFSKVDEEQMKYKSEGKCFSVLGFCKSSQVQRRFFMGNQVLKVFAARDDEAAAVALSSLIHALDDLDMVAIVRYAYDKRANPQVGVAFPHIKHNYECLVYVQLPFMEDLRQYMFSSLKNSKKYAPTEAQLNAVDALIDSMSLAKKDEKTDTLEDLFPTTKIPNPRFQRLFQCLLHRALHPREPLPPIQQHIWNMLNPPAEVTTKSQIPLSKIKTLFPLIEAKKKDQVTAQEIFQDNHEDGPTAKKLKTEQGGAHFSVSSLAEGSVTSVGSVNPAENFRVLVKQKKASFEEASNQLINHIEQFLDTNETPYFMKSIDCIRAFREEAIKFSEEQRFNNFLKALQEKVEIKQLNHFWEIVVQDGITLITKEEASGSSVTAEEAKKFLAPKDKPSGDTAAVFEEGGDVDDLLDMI
Protocol: As the first step to dissect the mechanism of action of Dbait molecules, a series of band-shift assays were carried out with different ^32P radio-labelled Dbait molecules in the presence of nuclear protein extracts from Hep2 cells according to standard protocol. Typically, 10 nM ^32P radio-labelled Dbait molecules were incubated in the presence of various concentrations of nuclear proteins (0, 10, 20, 40, 80, 160, and 320 ng/μL) at 30° C. for 10 minutes in TBE buffer. Then the samples were loaded on a 5% acrylamide native gel. The electrophoresis was run at 95V for 2 hours at 4° C. The gel was dried and scanned by phosphorimager (Molecular Dynamics).
For 32-bp Dbait molecules, the intensity of the retarded band 1 increases and then decreases as the concentration of protein increases, while the intensity of the retarded band 2 increases as a function of the concentration of nuclear protein extracts.
It is likely that band 1 has one Ku70/80 complex bound to the 16 to 32-bp Dbait, whereas the band 2 has two Ku70/80 complexes bound to the 32-bp Dbait molecules. Control experiments performed with purified Ku proteins confirmed this interpretation.

DNA-PK = target: T2, DNA-PK (Homo sapiens, UniProt P12956+P13010+P78527); assay: DNA-dependent protein kinase (DNA-PK) activity assay in Hep2 nuclear extract; format: biochemical; conditions: 2 μg Dbait, 1.5 μg Hep2 nuclear protein extract
T2 construct: Increasing amounts of Hep2 nuclear extract (cleaned of endogenous DNA by DEAE-Sepharose filtration) were assayed; endogenous in cells; host or cells: Hep2 cells (nuclear extract, DNA removed by DEAE-Sepharose filtration)
Protocol: as §2
The kinase activity depended directly on the length and structure of the double-stranded ‘stem’ of the Dbait molecule. […] In addition, various backbone modifications (phosphothioate, methyphosphonate, 3′-3′ linkage) at the free blunt end (up to 3-bp), as well as the internally tagged ligands (e.g. fluorescent dyes), are capable of activating DNA-PK activity.

## Dbait32C: dumbbell 32-bp double strand DNA (without free blunt end) (DNA ACGCACGGGTGTTGGGTCGTTTGTTCGGATCT; DNA, backbone not given here; dumbbell duplex DNA, both ends closed by hexaethyleneglycol loops)
[1]
  radiation-enhanced illegitimate integration of plasmid (puromycin resistance): not effective
[2]
  ligation of DNA fragments in cell-free assay: largely unaffected

## 5′ACGCACGGGTGTTGGGTCGTTTGTTCGGATCT ACGCACGGTCGTTTGTTCGGTGTTGGCGATCT3′ [Dbait64L]
Hela cells
  clonogenic survival: significantly reduced clonogenic survival

## Dbait32H-po: full length phosphodiester Dbait32H (DNA ACGCACGGGTGTTGGGTCGTTTGTTCGGATCT; DNA, phosphodiester; hairpin DNA closed by hexaethyleneglycol loop)
Ku complex
  retarded bands in band-shift assay: two retarded band

## Dbait32-T4: contains four thymines (T4) as a linker instead of a hexaethyleneglycol linker (DNA ACGCACGGGTGTTGGGTCGTTTGTTCGGATCT; DNA, backbone not given here; hairpin DNA with four-thymine loop, 3-bp phosphorothioate at free blunt end)
Hela cells
  clonogenic survival: significantly reduced clonogenic survival

## Dbait24H: hairpin double strand DNA with a stem of 24-bp (DNA ACGCACGGGTGTTGGGTCGTTTGT; DNA, backbone not given here; hairpin DNA with hexaethyleneglycol loop, 3-bp phosphorothioate at free blunt end)
Ku complex
  retarded bands in band-shift assay: One retarded band
Ku complex; Hep2 nuclear extract, band-shift
  binding of Ku: bound only one Ku dimer
Hela cells
  clonogenic survival: significantly reduced clonogenic survival
DNA-PK
  DNA-PK activation (kinase activity): inefficient
[2]
  ligation of DNA fragments in cell-free assay: inhibited the ligation as efficiently as Dbait32H

## 5′ACGCACGGGTGTTGGGTCGTTTGTTCGGATCTACGCACGGTCGTTTGTTCGGTGTTGGCGATCT3′ [Dbait64]
Hela cells
  clonogenic survival: significantly reduced clonogenic survival
